According to BindingDB's records for patent US20240246981 (Boehringer Ingelheim International, 2024):

Tests used:
[1] = target: Glutaminyl-peptide cyclotransferase (Homo sapiens, UniProt Q16769); assay: Biochemical QPCT and QPCTL Activity Assay
Protocol: (§1) QPCT or QPCTL dependent conversion of N-terminal glutamine to pyroglutamate of CD47 was monitored via MALDI-TOF MS. Test compounds were dissolved in 100% DMSO and serially diluted into clear 1,536-well microtiter plates. Enzymatic reactions were set up in assay buffer containing 20 mM Tris pH 7.5, 0.1 mM TCEP, 0.01% BSA, and 0.001% Tween20. […] The plates were incubated for 10 min in a humidified incubator at 24° C. Subsequently, 2.5 μL of CD47 peptide substrate surrogate (19[…]33) was added to each well (final concentration: 10 μM for QPCTL/20 μM for QPCT). The plates were mixed for 30 sec at 1,000 rpm and subsequently incubated for 40 min in a humidified incubator at 24° C. […] The plates were sealed with an adhesive foil, mixed for 30 s at 1,000 rpm and stored at room temperature until preparation of the MALDI target plates. MALDI target plates were prepared as described previously.

[2] = target: Glutaminyl-peptide cyclotransferase-like protein (Homo sapiens, UniProt Q9NXS2); assay: Biochemical QPCT and QPCTL Activity Assay
Glutaminyl-peptide cyclotransferase-like protein, sequence (Q9NXS2 whole entry): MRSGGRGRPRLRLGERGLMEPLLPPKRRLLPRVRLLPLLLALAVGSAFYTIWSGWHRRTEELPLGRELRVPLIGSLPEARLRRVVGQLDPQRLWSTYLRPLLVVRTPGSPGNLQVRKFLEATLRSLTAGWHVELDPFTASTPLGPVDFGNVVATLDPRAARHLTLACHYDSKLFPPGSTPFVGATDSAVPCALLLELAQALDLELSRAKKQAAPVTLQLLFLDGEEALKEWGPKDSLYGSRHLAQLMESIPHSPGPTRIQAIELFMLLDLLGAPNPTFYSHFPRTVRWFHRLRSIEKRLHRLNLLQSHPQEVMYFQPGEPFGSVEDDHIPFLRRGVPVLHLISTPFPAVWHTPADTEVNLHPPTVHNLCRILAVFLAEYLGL
Protocol: as §1

Glutaminyl-peptide cyclotransferase, sequence (Q16769 whole entry): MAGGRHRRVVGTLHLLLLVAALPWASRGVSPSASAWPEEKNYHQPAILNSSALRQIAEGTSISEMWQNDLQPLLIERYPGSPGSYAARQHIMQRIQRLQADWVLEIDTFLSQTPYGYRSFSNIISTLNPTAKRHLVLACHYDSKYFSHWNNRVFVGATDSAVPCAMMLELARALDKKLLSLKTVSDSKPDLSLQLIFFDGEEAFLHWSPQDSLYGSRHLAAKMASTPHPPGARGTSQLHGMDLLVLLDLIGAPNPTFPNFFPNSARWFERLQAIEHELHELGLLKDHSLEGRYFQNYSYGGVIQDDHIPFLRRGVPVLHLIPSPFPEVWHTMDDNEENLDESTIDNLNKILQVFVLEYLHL

IC50 [1]	IC50 [2]	SMILES
28 nM	8 nM	Cn1cnnc1C1CCN(c2c(C#N)cccc2-c2cnc(F)c(OC(F)F)c2)CC1 [US20240246981, Example 37]
195 nM	50 nM	Cn1cnnc1C1CCN(c2c(C#N)cccc2-c2cncc(-c3ccccc3)c2)CC1 [US20240246981, Example 21]
	13 nM	Cn1cnnc1C1CCN(c2c(C#N)cccc2-c2cnc(F)c(Oc3ccccc3)c2)CC1 [US20240246981, Example 38]
9 nM	26 nM	Cn1cnnc1C1(C)CCN(c2c(C#N)cccc2-c2cccnc2)CC1 [US20240246981, Example 65]
6 nM	1 nM	Cn1cnnc1C1CCN(c2c(C#N)cccc2-c2cnc(F)c(OC3CCC3)c2)CC1 [US20240246981, Example 34]
162 nM	31 nM	Cn1cnnc1C1CCN(c2c(C#N)cccc2-c2cncc(OC(F)F)c2)CC1 [US20240246981, Example 23]
	1 nM	Cn1cnnc1C1(F)CCN(c2c(C#N)cccc2-c2cnc3nn(CC(F)(F)F)cc3c2)CC1 [US20240246981, Example 55]
	1 nM	Cn1cnnc1C1(F)CCN(c2c(C#N)cccc2-c2cnc(=O)n(C)c2)CC1 [US20240246981, Example 58]

SMILES	IC50 [1]	IC50 [2]
Cn1cnnc1C1CCN(c2c(C#N)cccc2-c2cnc3nn(C)c(C(F)(F)F)c3c2)CC1 [US20240246981, Example 41]	9 nM	
